# Like-named read-outs stand apart in the source and are kept apart here.
# Experiments:
# [1] = target: T1, angiotensin II receptor type 2 (AT2), bovine cerebellar cortex (Bos taurus, UniProt G5E6F7); assay: Receptor binding test, AT2 (tracer 125I-Tyr4-angiotensin II, displacer angiotensin II (human)); details: 1 h, read-out: Binding inhibition ratio (%) of the test compounds at 1 μM, AT2
# T1 construct: Receptor: bovine cerebellar cortex; from tissue; host or cells: bovine cerebellar cortex
# T1 sequence (G5E6F7 1-362): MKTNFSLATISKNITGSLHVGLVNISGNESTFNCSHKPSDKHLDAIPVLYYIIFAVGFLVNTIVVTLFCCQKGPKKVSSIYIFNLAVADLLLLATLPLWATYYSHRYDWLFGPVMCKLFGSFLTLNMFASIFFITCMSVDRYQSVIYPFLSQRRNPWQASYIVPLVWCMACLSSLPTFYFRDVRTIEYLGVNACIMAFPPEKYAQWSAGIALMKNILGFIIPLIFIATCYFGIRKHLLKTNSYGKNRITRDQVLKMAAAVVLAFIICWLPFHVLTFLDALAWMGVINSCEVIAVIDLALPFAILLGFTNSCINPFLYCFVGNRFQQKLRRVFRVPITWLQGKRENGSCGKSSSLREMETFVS
# Experimental: (§1) Determination of total binding in the presence of each drug to be tested was made in the following way. A test drug of a predetermined concentration (0.025 ml; dissolved in dimethyl sulfoxide, then diluted two-fold with a buffer attached to the Drug Discovery System and used for assay), a tracer (0.025 ml), and a receptor (0.2 ml) were added to make a total volume of 0.25 ml. After incubation (at room temperature for 3 hours for the angiotensin II receptor type 1 (AT1) and at 37° C. for one hour for the type 2 (AT2)), the reaction mixture was subjected to suction filtration (using GF/C filter paper for AT1 and GF/B filter paper for AT2). The filter paper (tracer-receptor complex) after suction filtration was measured by a y-well counter (ARC-500, Aloka). The non-specific binding was determined by the similar operation by using a large excess of displacer. The specific binding at the predetermined concentration of the test drug was calculated by deducting the non-specific binding from the total binding.
# [2] = target: T2, angiotensin II receptor type 1 (AT1), suprarenal gland of rabbit (Oryctolagus cuniculus, UniProt P34976); assay: Receptor binding test, AT1 (tracer 3H-angiotensin II, displacer DuP753); details: room temperature, read-out: Binding inhibition ratio (%) of the test compounds at 1 μM, AT1
# T2 construct: Receptor: suprarenal gland of rabbit; from tissue; host or cells: suprarenal gland (adrenal) of rabbit
# T2 sequence (P34976 1-359): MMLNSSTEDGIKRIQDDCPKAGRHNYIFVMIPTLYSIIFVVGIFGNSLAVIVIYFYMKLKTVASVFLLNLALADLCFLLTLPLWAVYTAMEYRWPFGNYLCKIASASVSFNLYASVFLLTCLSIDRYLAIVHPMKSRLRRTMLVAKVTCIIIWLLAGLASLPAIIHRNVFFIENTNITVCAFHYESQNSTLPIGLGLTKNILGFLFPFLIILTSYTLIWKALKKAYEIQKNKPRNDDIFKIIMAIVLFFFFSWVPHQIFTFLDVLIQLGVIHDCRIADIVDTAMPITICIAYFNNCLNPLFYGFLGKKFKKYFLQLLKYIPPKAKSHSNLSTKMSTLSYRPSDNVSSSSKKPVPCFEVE
# Experimental: as §1, with “binding. The ratio (%) at which the test drugs inhibit binding between radioactive ligand and receptor was determined for both AT1 and AT2 by using the test drugs of the predetermined concentration and a control drug. | *Receptor: suprarenal gland of rabbit Tracer: ^3 Hangiotensin II | (displacer: […])” for “binding.”
# [3] = 1 μM, receptor: bovine cerebellar cortex, 37° C., one hour
"inhibition at 1 µM [1, 3] [%]",inhibition at 1 µM [2] [%],Structure (SMILES),inhibition at 1 µM [1] [%]
100,0,CN(C)C(=O)[C@@H]1Cc2c(ncn2Cc2ccc(NC(=O)c3ccccc3C(=O)O)cc2)CN1C(=O)C(c1ccccc1)c1ccccc1 [Compound I-1],
100,0,"Cc1cc(Cn2cnc3c2C[C@@H](C(=O)N(C)C)N(C(=O)C(c2ccccc2)c2ccccc2)C3)ccc1NC(=O)c1ccccc1C(=O)O [Compound I-2, (S)-1-(4-(2-carboxybenzoylamino)-3-methylphenyl)methyl-N,N-dimethyl-5-diphenylacetyl-4,5,6,7-tetrahydro-1H-imidazo[4,5-c]pyridine-6-carboxamide]",
100,0,Cc1cc(Cn2cnc3c2C[C@@H](C(=O)N2CCOCC2)N(C(=O)C(c2ccccc2)c2ccccc2)C3)ccc1NC(=O)c1ccccc1C(=O)O [Compound I-7],
0,100,CCCCc1nc2c(n1Cc1ccc(NC(=O)c3ccccc3C(=O)O)c(C)c1)C[C@@H](C(=O)N(C)C)N(C(=O)C(c1ccccc1)c1ccccc1)C2 [Compound I-12],
0,100,CCCCc1nc2c(n1Cc1ccc(-c3ccccc3C(=O)O)cc1)C[C@@H](C(=O)N(C)C)N(C(=O)C(c1ccccc1)c1ccccc1)C2 [Compound I-17],
0,100,CCCCc1nc2c(n1Cc1ccc(-c3ccccc3-c3nn[nH]n3)c(C)c1)C[C@@H](C(=O)N(C)C)N(C(=O)C(c1ccccc1)c1ccccc1)C2 [Compound I-19],
100,0,O=C(O)c1ccc(Cn2cnc3c2C[C@@H](C(=O)N2CCOCC2)N(C(=O)C(c2ccccc2)c2ccccc2)C3)cc1 [Compound I-21],
100,0,"O=C([C@@H]1Cc2c(ncn2Cc2ccc(-c3ccccc3-c3nnn[nH]3)cc2)CN1C(=O)C(c1ccccc1)c1ccccc1)N1CCOCC1 [Compound I-24, 4-[[(S)-5-diphenylacetyl-1-[(2'-(1H-tetrazol-5-yl)biphenyl-4-yl)methyl]-4,5,6,7-tetrahydro-1H-imidazo[4,5-c]pyridin-6-yl]carbonyl]morpholine]",
0,100,CCCCc1nc2c(n1Cc1ccc(NC(=O)c3ccccc3C(=O)O)c(C)c1)C[C@@H](C(=O)N1CCOCC1)N(C(=O)C(c1ccccc1)c1ccccc1)C2 [Compound I-30],
0,100,CCCCc1nc2c(n1Cc1ccc(-c3ccccc3-c3nn[nH]n3)cc1)C[C@@H](C(=O)N1CCOCC1)N(C(=O)C(c1ccccc1)c1ccccc1)C2 [Compound I-31],
0,100,CCCCc1nc2c(n1Cc1ccc(-c3ccccc3-c3nn[nH]n3)cc1)C[C@@H](C(=O)N1CCSCC1)N(C(=O)C(c1ccccc1)c1ccccc1)C2 [Compound I-32],
0,100,CCCCc1nc2c(n1Cc1ccc(-c3ccccc3-c3nn[nH]n3)cc1)C[C@@H](C(=O)N(CC)CC)N(C(=O)C(c1ccccc1)c1ccccc1)C2 [Compound I-40],
65,0,"Cc1cc(Cn2cnc3c2CC(C(=O)O)N(C(=O)C(c2ccccc2)c2ccccc2)C3)ccc1N (centres unmarked) [PD123177, reference compound]",
71,0,"Cc1cc(Cn2cnc3c2CC(C(=O)O)N(C(=O)C(c2ccccc2)c2ccccc2)C3)ccc1NC(=O)c1ccccc1C(=O)O (centres unmarked) [Reference compound 1, reference compound]",
72,0,"COC(=O)C1Cc2c(ncn2Cc2ccc(NC(=O)c3ccccc3C(=O)O)c(C)c2)CN1C(=O)C(c1ccccc1)c1ccccc1 (centres unmarked) [Reference compound 2, reference compound]",
0,78,"CCCc1nc2c(n1Cc1ccc(-c3ccccc3-c3nn[nH]n3)c(C)c1)CC(C(=O)O)N(C(=O)C(c1ccccc1)c1ccccc1)C2 (centres unmarked) [Reference compound 26, reference compound]",
76,0,"O=C(O)C1Cc2c(ncn2Cc2ccc(-c3ccccc3-c3nn[nH]n3)cc2)CN1C(=O)C(c1ccccc1)c1ccccc1 (centres unmarked) [Reference compound 27, reference compound]",
0,75,"CCCc1nc2c(n1Cc1ccc(-c3ccccc3-c3nn[nH]n3)cc1)CC(C(=O)O)N(C(=O)C(c1ccccc1)c1ccccc1)C2 (centres unmarked) [Reference compound 50, reference compound]",

Structure (SMILES),"inhibition at 1 µM [1, 3] [%]",inhibition at 1 µM [2] [%],inhibition at 1 µM [1] [%]
"CCCCc1nc(Cl)c(CO)n1Cc1ccc(-c2ccccc2-c2nn[nH]n2)cc1 [DuP753, reference compound]",,70,0

# From patent US5401736A, “4,5,6,7-tetrahydro-1H-imidazo[4,5-c]pyridine-6-carboxylic acid amide” (Kureha Kagaku Kogyo Kabushiki Kaisha, priority 1992, dated 1995)
